Data: PubChem BioAssay AID248 (DTP/NCI, 2004)
Inconclusive results and toxic doses are left out. No stated cut-off is given here; in the data, active means T/C of 150% or more; inactive means T/C below 125%.

System: L1210 leukemia ip in BDF1 mice, survival T/C
Assay: NCI In Vivo Anticancer Drug Screen. Data for tumor model L1210 Leukemia (intraperitoneal) in B6D2F1 (BDF1) mice
Details: higher = longer survival
Summary of the method: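 Transplanted-tumor mice were given test agent; controls received vehicle only. Survival readings from the two groups were divided (treated over control).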

[1] = endpoint: mean survival time, dose: 100.0 mg/kg/injection, schedule: Q01DX009 (ip), vehicle: Klucel (hydroxypropylcellulose) (HPC)
[2] = endpoint: mean survival time, dose: 200.0 mg/kg/injection, schedule: Q01DX009 (ip), vehicle: Klucel (hydroxypropylcellulose) (HPC)
[3] = endpoint: mean survival time, dose: 400.0 mg/kg/injection, schedule: Q01DX009 (ip), vehicle: Klucel (hydroxypropylcellulose) (HPC)
[4] = endpoint: mean survival time, dose: 100.0 mg/kg/injection, schedule: Q01DX001 (ip), vehicle: saline
[5] = endpoint: mean survival time, dose: 75.0 mg/kg/injection, schedule: Q01DX001 (ip), vehicle: saline
[6] = endpoint: mean survival time, dose: 100.0 mg/kg/injection, schedule: Q01DX009 (ip), vehicle: saline
[7] = endpoint: mean survival time, dose: 200.0 mg/kg/injection, schedule: Q01DX001 (ip), vehicle: saline
[8] = endpoint: mean survival time, dose: 400.0 mg/kg/injection, schedule: Q01DX001 (ip), vehicle: saline

Measured: T/C

Nc1ccc(NS(=O)(=O)c2ccccc2)nc1
inactive: [1] 102 % of control | endpoint: mean survival time, dose: 100.0 mg/kg/injection, schedule: Q04DX003 (ip), vehicle: Klucel (hydroxypropylcellulose) (HPC) 106 % of control | [2] 96 % of control | endpoint: mean survival time, dose: 200.0 mg/kg/injection, schedule: Q04DX003 (ip), vehicle: Klucel (hydroxypropylcellulose) (HPC) 100 % of control | [3] 93 % of control | endpoint: mean survival time, dose: 400.0 mg/kg/injection, schedule: Q04DX003 (ip), vehicle: Klucel (hydroxypropylcellulose) (HPC) 105 % of control

COC1OC2COC(c3ccccc3)OC2C(O)C1OC (stereo not given)
inactive: endpoint: mean survival time, dose: 12.5 mg/kg/injection, schedule: Q04DX002 (ip), vehicle: saline 100 % of control | endpoint: mean survival time, dose: 25.0 mg/kg/injection, schedule: Q04DX002 (ip), vehicle: saline 100 % of control | endpoint: mean survival time, dose: 50.0 mg/kg/injection, schedule: Q04DX002 (ip), vehicle: saline 116 % of control

COc1cccc2c1C(=O)c1c(O)c3c(c(O)c1C2=O)C[C@@](O)(C(=O)COC(=O)Cc1ccccc1)C[C@@H]3OC1CC(N)C(O)C(C)O1 (stereo not given in full)
inactive: endpoint: mean survival time, dose: 6.8 mg/kg/injection, schedule: Q01DX009 (ip), vehicle: saline with Tween-80 104 % of control
active: endpoint: mean survival time, dose: 1.3 mg/kg/injection, schedule: Q01DX009 (ip), vehicle: saline 152 % of control | endpoint: mean survival time, dose: 2.0 mg/kg/injection, schedule: Q01DX009 (ip), vehicle: saline 167 % of control | endpoint: mean survival time, dose: 3.0 mg/kg/injection, schedule: Q01DX009 (ip), vehicle: saline 173 % of control

Clc1ccc(/C=N/N=C/c2ccc(Cl)cc2Cl)c(Cl)c1
inactive: endpoint: mean survival time, dose: 100.0 mg/kg/injection, schedule: Q04DX002 (ip), vehicle: Klucel (hydroxypropylcellulose) (HPC) 98 % of control | endpoint: mean survival time, dose: 200.0 mg/kg/injection, schedule: Q04DX002 (ip), vehicle: Klucel (hydroxypropylcellulose) (HPC) 98 % of control | endpoint: mean survival time, dose: 400.0 mg/kg/injection, schedule: Q04DX002 (ip), vehicle: Klucel (hydroxypropylcellulose) (HPC) 102 % of control

O=C(/C=C/c1ccccc1)C1CC1
inactive: endpoint: mean survival time, dose: 100.0 mg/kg/injection, schedule: Q04DX003 (ip), vehicle: other 101 % of control | endpoint: mean survival time, dose: 200.0 mg/kg/injection, schedule: Q04DX003 (ip), vehicle: other 98 % of control | endpoint: mean survival time, dose: 400.0 mg/kg/injection, schedule: Q04DX003 (ip), vehicle: other 98 % of control

NC(=S)N/N=C1\CC(c2ccccc2)Oc2ccccc21 (stereo not given)
inactive: [4] 88 % of control

CCOC(=O)CC1C(C)C(C)NC(C)C1C (stereo not given)
inactive: [5] 94 % of control | endpoint: mean survival time, dose: 150.0 mg/kg/injection, schedule: Q01DX001 (ip), vehicle: saline 103 % of control

CCCCNC=O
inactive: [6] 101 % of control | endpoint: mean survival time, dose: 100.0 mg/kg/injection, schedule: Q04DX003 (ip), vehicle: saline 102 % of control | endpoint: mean survival time, dose: 200.0 mg/kg/injection, schedule: Q01DX009 (ip), vehicle: saline 106 % of control | endpoint: mean survival time, dose: 200.0 mg/kg/injection, schedule: Q04DX003 (ip), vehicle: saline 93 % of control | endpoint: mean survival time, dose: 400.0 mg/kg/injection, schedule: Q01DX009 (ip), vehicle: saline 108 % of control | endpoint: mean survival time, dose: 400.0 mg/kg/injection, schedule: Q04DX003 (ip), vehicle: saline 111 % of control

O=CC(O)C(O)C(O)C(O)COC(=S)OCC(O)C(O)C(O)C(O)C=O (stereo not given) (tested in a mixture with another compound)
inactive: endpoint: mean survival time, dose: 100.0 mg/kg/injection, schedule: Q04DX002 (ip), vehicle: saline 110 % of control | endpoint: mean survival time, dose: 200.0 mg/kg/injection, schedule: Q04DX002 (ip), vehicle: saline 100 % of control | endpoint: mean survival time, dose: 400.0 mg/kg/injection, schedule: Q04DX002 (ip), vehicle: saline 95 % of control

CN(C)C(=O)Nc1ccc(Cc2ccc(NC(=O)N(C)C)cc2)cc1
inactive: [1] 96 % of control | [2] 92 % of control | [3] 96 % of control

O=S(=O)(NC(=S)c1ccccc1)c1ccccc1
inactive: endpoint: mean survival time, dose: 50.0 mg/kg/injection, schedule: Q01DX009 (ip), vehicle: saline 108 % of control | [6] 97 % of control

CCCCOC(=O)C1C=C(N)CCC1 (stereo not given)
inactive: endpoint: mean survival time, dose: 100.0 mg/kg/injection, schedule: Q01DX001 (ip), vehicle: carboxymethylcellulose (CMC) 92 % of control | endpoint: mean survival time, dose: 200.0 mg/kg/injection, schedule: Q01DX001 (ip), vehicle: carboxymethylcellulose (CMC) 89 % of control | endpoint: mean survival time, dose: 400.0 mg/kg/injection, schedule: Q01DX001 (ip), vehicle: carboxymethylcellulose (CMC) 94 % of control

N#Cc1ccc(CC(=O)c2ccccc2)cc1
inactive: endpoint: mean survival time, dose: 50.0 mg/kg/injection, schedule: Q01DX001 (ip), vehicle: saline 101 % of control | [4] 97 % of control | [7] 101 % of control | [8] 95 % of control

CSCS(=O)C[C@H](CO)NC(=O)/C=C/c1c(C)[nH]c(=O)[nH]c1=O (stereo not given in full)
inactive: endpoint: mean survival time, dose: 0.38 mg/kg/injection, schedule: Q01DX001 (ip), vehicle: saline 105 % of control | endpoint: mean survival time, dose: 0.39 mg/kg/injection, schedule: Q04DX002 (ip), vehicle: Klucel (hydroxypropylcellulose) (HPC) 96 % of control | endpoint: mean survival time, dose: 0.75 mg/kg/injection, schedule: Q01DX001 (ip), vehicle: saline 103 % of control | endpoint: mean survival time, dose: 0.75 mg/kg/injection, schedule: Q01DX Z (ip), vehicle: carboxymethylcellulose (CMC) 86 % of control | endpoint: mean survival time, dose: 0.78 mg/kg/injection, schedule: Q04DX002 (ip), vehicle: Klucel (hydroxypropylcellulose) (HPC) 96 % of control | endpoint: mean survival time, dose: 1.1 mg/kg/injection, schedule: Q01DX001 (ip), vehicle: carboxymethylcellulose (CMC) 106 % of control | endpoint: mean survival time, dose: 1.5 mg/kg/injection, schedule: Q01DX001 (ip), vehicle: saline 116 % of control | endpoint: mean survival time, dose: 1.56 mg/kg/injection, schedule: Q04DX002 (ip), vehicle: Klucel (hydroxypropylcellulose) (HPC) 110 % of control | endpoint: mean survival time, dose: 1.7 mg/kg/injection, schedule: Q01DX001 (ip), vehicle: carboxymethylcellulose (CMC) 112 % of control | endpoint: mean survival time, dose: 2.6 mg/kg/injection, schedule: Q01DX001 (ip), vehicle: carboxymethylcellulose (CMC) 112 % of control | endpoint: mean survival time, dose: 3.0 mg/kg/injection, schedule: Q01DX001 (ip), vehicle: saline 111 % of control | endpoint: mean survival time, dose: 3.13 mg/kg/injection, schedule: Q04DX002 (ip), vehicle: Klucel (hydroxypropylcellulose) (HPC) 104 % of control | endpoint: median survival time, dose: 4.0 mg/kg/injection, schedule: Q04DX003 (ip), vehicle: saline 121 % of control

NC(N)=Nc1ccc(NC(=O)c2ccc(C(=O)Nc3ccc(N=C(N)N)cc3)cc2)cc1
inactive: endpoint: mean survival time, dose: 1.8 mg/kg/injection, schedule: Q01DX Z (ip), vehicle: carboxymethylcellulose (CMC) 122 % of control | endpoint: mean survival time, dose: 3.7 mg/kg/injection, schedule: Q01DX Z (ip), vehicle: carboxymethylcellulose (CMC) 104 % of control | endpoint: mean survival time, dose: 7.5 mg/kg/injection, schedule: Q01DX Z (ip), vehicle: carboxymethylcellulose (CMC) 88 % of control

[N-]=[N+]=C1N=C(Br)N=C1c1n[nH]c(Br)n1
inactive: endpoint: mean survival time, dose: 100.0 mg/kg/injection, schedule: Q01DX001 (ip), vehicle: Klucel (hydroxypropylcellulose) (HPC) 98 % of control | endpoint: mean survival time, dose: 200.0 mg/kg/injection, schedule: Q01DX001 (ip), vehicle: Klucel (hydroxypropylcellulose) (HPC) 109 % of control | endpoint: mean survival time, dose: 400.0 mg/kg/injection, schedule: Q01DX001 (ip), vehicle: Klucel (hydroxypropylcellulose) (HPC) 102 % of control

O=C(O)CC(C[N+](=O)[O-])C(F)(F)C(F)(F)C(F)(F)F (stereo not given)
inactive: [4] 97 % of control | [7] 112 % of control | [8] 101 % of control

Nc1nc2[nH]cnc(=S)c2[nH]1
inactive: [5] 101 % of control

CC(=O)CC(C)(C)C
inactive: [4] 102 % of control | [7] 98 % of control | [8] 91 % of control

CN=C(N)c1ccc(S(=O)(=O)N=C(N)N)cc1
inactive: [4] 96 % of control | [7] 98 % of control | [8] 100 % of control

Nc1nc(N)c2nc(CNc3ccc(S(=O)(=O)NC(CCC(=O)O)C(=O)O)cc3)cnc2n1 (stereo not given)
inactive: endpoint: mean survival time, dose: 20.0 mg/kg/injection, schedule: Q01DX009 (ip), vehicle: Klucel (hydroxypropylcellulose) (HPC) 114 % of control | endpoint: mean survival time, dose: 40.0 mg/kg/injection, schedule: Q01DX009 (ip), vehicle: Klucel (hydroxypropylcellulose) (HPC) 119 % of control | endpoint: mean survival time, dose: 80.0 mg/kg/injection, schedule: Q01DX009 (ip), vehicle: Klucel (hydroxypropylcellulose) (HPC) 124 % of control | [2] 120 % of control

CCCCNC(=O)NC(=O)CS(=O)(=O)c1ccc(C)cc1
inactive: endpoint: mean survival time, dose: 100.0 mg/kg/injection, schedule: Q04DX003 (ip), vehicle: saline with Tween-80 95 % of control | endpoint: mean survival time, dose: 200.0 mg/kg/injection, schedule: Q04DX003 (ip), vehicle: saline with Tween-80 95 % of control | endpoint: mean survival time, dose: 400.0 mg/kg/injection, schedule: Q04DX003 (ip), vehicle: saline with Tween-80 93 % of control

O=P(Nc1ccccc1)(N1CCCCC1)N1CCCCC1
inactive: endpoint: mean survival time, dose: 100.0 mg/kg/injection, schedule: Q04DX002 (ip), vehicle: saline with Tween-80 101 % of control | endpoint: mean survival time, dose: 200.0 mg/kg/injection, schedule: Q04DX002 (ip), vehicle: saline with Tween-80 101 % of control | endpoint: mean survival time, dose: 400.0 mg/kg/injection, schedule: Q04DX002 (ip), vehicle: saline with Tween-80 108 % of control

OCC(O)COc1ccccc1 (stereo not given)
inactive: [4] 108 % of control | [7] 96 % of control | [8] 96 % of control
